Reference: the NIST ThermoML archive (doi:10.1021/acs.jced.7b00466)
Numbers after ± are expanded uncertainties.

Settings: for viscosity / speed of sound / mass density: 102 kPa, Liquid; for viscosity: Concentric cylinders viscometry; for speed of sound: Frequency=3 MHz, Sing-around technique in a fixed-path interferometer; for mass density: Vibrating tube method; for surface tension liquid-gas: Pendant drop shape

Compound	viscosity (293.15 K) [mPa·s]	speed of sound (293.15 K) [m/s]	mass density (293.15 K) [kg/m3]	viscosity (303.15 K) [mPa·s]	speed of sound (303.15 K) [m/s]	mass density (303.15 K) [kg/m3]	viscosity (313.15 K) [mPa·s]	speed of sound (313.15 K) [m/s]	mass density (313.15 K) [kg/m3]	viscosity (323.15 K) [mPa·s]	speed of sound (323.15 K) [m/s]	mass density (323.15 K) [kg/m3]	viscosity (333.15 K) [mPa·s]	speed of sound (333.15 K) [m/s]	mass density (333.15 K) [kg/m3]	viscosity (343.15 K) [mPa·s]	mass density (343.15 K) [kg/m3]	other results
CCCCc1ccccc1 [butylbenzene]	1.06 ± 0.01	1352.8 ± 1	860.6 ± 0.19	0.915 ± 0.012	1314 ± 1	852.56 ± 0.19	0.801 ± 0.012	1275.8 ± 1	844.5 ± 0.19	0.708 ± 0.011	1238.2 ± 1	836.41 ± 0.19	0.631 ± 0.011	1201.4 ± 1	828.29 ± 0.19	0.566 ± 0.011	820.3 ± 0.5	surface tension liquid-gas (294.4 K): 28.8 ± 0.3 mN/m
CCCCC1CCCCC1 [butylcyclohexane]	1.31 ± 0.01	1327.7 ± 1	799.33 ± 0.2	1.11 ± 0.01	1287.9 ± 1	791.82 ± 0.2	0.961 ± 0.012	1248.7 ± 1	784.28 ± 0.2	0.837 ± 0.012	1210.3 ± 1	776.7 ± 0.2	0.736 ± 0.011	1172.6 ± 1	769.09 ± 0.2	0.653 ± 0.011	761.4 ± 0.5	surface tension liquid-gas (294.5 K): 26.6 ± 0.3 mN/m
CCCCCCCCCCCC [dodecane]	1.47 ± 0.02	1297.3 ± 1.3	748.79 ± 1.5	1.23 ± 0.01	1259.1 ± 1.3	741.54 ± 1.5	1.05 ± 0.01	1221.5 ± 1.3	734.25 ± 1.5	0.902 ± 0.012	1184.4 ± 1.3	726.94 ± 1.5	0.786 ± 0.012	1148 ± 1.3	719.59 ± 1.5	0.69 ± 0.012	712.2 ± 4.3	surface tension liquid-gas (293.6 K): 25 ± 0.3 mN/m
CCCCCCCCCCCCCCCC [hexadecane]	3.43 ± 0.02	1356.4 ± 1	773.42 ± 0.32	2.72 ± 0.02	1319 ± 1	766.47 ± 0.32	2.2 ± 0.02	1282.6 ± 1	759.55 ± 0.32	1.82 ± 0.01	1246.9 ± 1	752.63 ± 0.32	1.54 ± 0.01	1212 ± 1	745.71 ± 0.32	1.31 ± 0.01	738.8 ± 0.9	surface tension liquid-gas (294 K): 27.2 ± 0.3 mN/m
CCCCCCc1ccccc1 [hexylbenzene]	1.68 ± 0.01	1374.7 ± 1.1	857.69 ± 0.7	1.41 ± 0.01	1337.3 ± 1.1	850.09 ± 0.7	1.2 ± 0.01	1300.5 ± 1.1	842.49 ± 0.7	1.03 ± 0.01	1264.3 ± 1.1	834.87 ± 0.7	0.901 ± 0.012	1228.8 ± 1.1	827.48 ± 0.7	0.794 ± 0.012	819.5 ± 2	surface tension liquid-gas (294.1 K): 29.4 ± 0.4 mN/m
Cc1ccccc1 [toluene]																		surface tension liquid-gas (293 K): 28.6 ± 0.3 mN/m
